ChEMBL document CHEMBL4406807, “Discovery of 3,4,6-Trisubstituted Piperidine Derivatives as Orally Active, Low hERG Blocking Akt Inhibitors via Conformational Restriction and Structure-Based Design” (J Med Chem, 2019)

What was measured:
[1] = molecular target: Potassium voltage-gated channel subfamily A member 4 (Homo sapiens, UniProt P22459); test: Inhibition of Kv1.4 (unknown origin) at 3 uM relative to control
[2] = Microsomal stability in mouse liver microsomes assessed as compound remaining at 100 ug/ml in presence of NADPH measured at 1.5 hrs by LC/MS analysis; assay type: ADME, Microsome; conditions: read-out: Stability
[3] = Tmax in ICR mouse at 40 mg/kg, ig measured up to 48 hrs by LC-MS/MS analysis; assay type: ADME, organism-based; conditions: in vivo, po
HCT-116 = test: cells; conditions: Homo sapiens, HCT-116, 72 h
[4] = Cmax in ICR mouse at 40 mg/kg, ig measured up to 48 hrs by LC-MS/MS analysis; assay type: ADME, organism-based; design: dose 40 mg/kg, route […]; conditions: in vivo, po
SK-OV-3 = test: Induction of apoptosis in human SKOV3 cells at 10 uM by FACS based flow cytometric analysis (reference value: 7.63%); assay type: functional
[5] = molecular target: Inward rectifier potassium channel 2 (Homo sapiens, UniProt P63252); test: Inhibition of Kir2.1 (unknown origin) at 3 uM relative to control
[6] = molecular target: T1, Serine/threonine-protein kinase Sgk1 (Homo sapiens, UniProt O00141); test: Inhibition of human SGK by mobility shift assay
T1 sequence (O00141 whole entry): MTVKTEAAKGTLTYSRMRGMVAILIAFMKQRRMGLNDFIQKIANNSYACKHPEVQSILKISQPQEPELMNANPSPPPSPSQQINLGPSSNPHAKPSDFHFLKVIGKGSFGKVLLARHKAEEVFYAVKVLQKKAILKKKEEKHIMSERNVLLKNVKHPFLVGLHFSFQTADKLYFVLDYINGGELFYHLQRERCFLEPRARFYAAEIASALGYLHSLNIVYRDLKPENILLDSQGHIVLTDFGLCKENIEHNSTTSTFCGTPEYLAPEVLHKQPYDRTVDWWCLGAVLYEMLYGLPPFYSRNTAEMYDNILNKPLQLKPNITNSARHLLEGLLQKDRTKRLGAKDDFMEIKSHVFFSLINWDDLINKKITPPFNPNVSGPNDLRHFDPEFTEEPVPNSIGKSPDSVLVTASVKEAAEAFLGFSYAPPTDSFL

[7] = molecular target: Potassium voltage-gated channel subfamily A member 2 (Homo sapiens, UniProt P16389); test: Inhibition of Kv1.2 (unknown origin) at 3 uM relative to control
[8] = Inhibition of recombinant His-tagged human PKA expressed in Escherichia coli using Ser/Thr 01 as substrate after 1 hr by Z-lyte assay
[9] = molecular target: Potassium voltage-gated channel subfamily A member 6 (Homo sapiens, UniProt P17658); test: Inhibition of Kv1.6 (unknown origin) at 3 uM relative to control
Sequence of Potassium voltage-gated channel subfamily A member 6 (P17658 whole entry): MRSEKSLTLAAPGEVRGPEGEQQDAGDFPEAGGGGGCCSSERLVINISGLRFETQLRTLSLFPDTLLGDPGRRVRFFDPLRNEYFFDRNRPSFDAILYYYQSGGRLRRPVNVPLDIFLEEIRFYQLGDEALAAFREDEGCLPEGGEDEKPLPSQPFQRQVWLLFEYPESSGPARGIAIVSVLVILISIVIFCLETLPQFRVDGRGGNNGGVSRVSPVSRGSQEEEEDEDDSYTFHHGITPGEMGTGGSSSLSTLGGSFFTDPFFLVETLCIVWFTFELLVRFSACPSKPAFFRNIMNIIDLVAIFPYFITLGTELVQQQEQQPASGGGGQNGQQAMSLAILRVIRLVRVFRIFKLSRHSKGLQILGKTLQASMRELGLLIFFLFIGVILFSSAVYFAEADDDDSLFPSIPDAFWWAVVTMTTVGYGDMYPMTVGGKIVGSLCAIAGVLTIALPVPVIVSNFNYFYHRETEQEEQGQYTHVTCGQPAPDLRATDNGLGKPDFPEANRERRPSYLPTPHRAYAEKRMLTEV

[10] = molecular target: Potassium/sodium hyperpolarization-activated cyclic nucleotide-gated channel 1 (Homo sapiens, UniProt O60741); test: Inhibition of HCN1 (unknown origin) at 3 uM relative to control
[11] = Toxicity in ICR mouse assessed as reduction in organ to brain weight ratio of thymus at 80 to 160 mg/kg, ig once daily for 7 days; assay type: organism-based; conditions: in vivo, po, 168 h
[12] = molecular target: Potassium voltage-gated channel subfamily A member 3 (Homo sapiens, UniProt P22001); test: Inhibition of Kv1.3 (unknown origin) at 3 uM relative to control
Sequence of Potassium voltage-gated channel subfamily A member 3 (P22001 whole entry): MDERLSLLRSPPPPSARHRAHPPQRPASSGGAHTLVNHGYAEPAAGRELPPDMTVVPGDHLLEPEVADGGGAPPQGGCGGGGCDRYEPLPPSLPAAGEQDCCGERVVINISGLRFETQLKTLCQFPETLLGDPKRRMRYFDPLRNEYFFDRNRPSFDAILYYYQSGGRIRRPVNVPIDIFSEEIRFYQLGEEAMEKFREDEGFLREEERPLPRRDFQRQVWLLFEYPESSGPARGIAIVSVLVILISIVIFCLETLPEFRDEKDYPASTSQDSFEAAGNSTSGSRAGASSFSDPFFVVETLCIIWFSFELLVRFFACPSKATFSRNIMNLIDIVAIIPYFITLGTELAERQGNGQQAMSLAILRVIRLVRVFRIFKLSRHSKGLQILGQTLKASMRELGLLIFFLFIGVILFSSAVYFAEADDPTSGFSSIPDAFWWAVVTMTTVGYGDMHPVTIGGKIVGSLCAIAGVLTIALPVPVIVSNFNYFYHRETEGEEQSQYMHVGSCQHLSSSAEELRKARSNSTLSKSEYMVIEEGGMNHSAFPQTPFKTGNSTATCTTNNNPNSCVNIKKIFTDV

[13] = Toxicity in ICR mouse assessed as maximum tolerated dose, ig administered once daily for 7 days; conditions: in vivo, po
[14] = MRT (0 to infinity) in ICR mouse at 40 mg/kg, ig measured up to 48 hrs by LC-MS/MS analysis; assay type: ADME, organism-based; conditions: in vivo, po
[15] = Toxicity in BALB/c nude mouse xenografted with human SKOV3 cells assessed as effect on body weight at 40 mg/kg, po BID for 21 days; assay type: organism-based; conditions: in vivo, 504 h
[16] = MRT (0 to t) in ICR mouse at 40 mg/kg, ig measured up to 48 hrs by LC-MS/MS analysis; assay type: ADME, organism-based; conditions: in vivo, po
[17] = Toxicity in ICR mouse assessed as effect on body weight at 80 to 160 mg/kg, ig administered once daily for 7 days; assay type: organism-based; conditions: in vivo, po, 168 h
[18] = Drug level in tumor of human SKOV3 cells xenografted in BALB/c nude mouse at 50 mg/kg administered for 7 consecutive days; assay type: ADME, organism-based, Neoplasm; conditions: in vivo
OVCAR-8 = test: Antiproliferative activity against human OVCAR8 cells; assay type: functional, cell-based
[19] = Toxicity in ICR mouse assessed as effect on biochemical parameter at 80 to 160 mg/kg, ig; assay type: organism-based; conditions: in vivo, po
[20] = molecular target: RAC-alpha serine/threonine-protein kinase (Homo sapiens, UniProt P31749)
Description: Inhibition of human Akt1 expressed in Escherichia coli using STK Substrate 2-biotin as substrate incubated for 1 hr by HTRF assay

[21] = molecular target: Potassium voltage-gated channel subfamily A member 10 (Homo sapiens, UniProt Q16322); test: Inhibition of Kv1.8 (unknown origin) at 3 uM relative to control
[22] = Stability in mouse plasma at 100 ug/ml after 1 hr by LC/MS analysis; assay type: ADME, cell-free; conditions: read-out: Stability
[23] = Clearance in Sprague-Dawley rat at 40 mg/kg, ig measured up to 24 hrs by LC-MS/MS analysis; assay type: ADME, organism-based; conditions: in vivo, po
[24] = molecular target: Serine/threonine-protein kinase AKT (Homo sapiens, UniProt P31751+Q9Y243+P31749); test: Inhibition of Akt in human LNCaP cells assessed as reduction in PRAS40 phosphorylation at T246 residue after 1 hr by ELISA; assay type: cell-based
[25] = Volume of distribution in ICR mouse at 40 mg/kg, ig measured up to 48 hrs by LC-MS/MS analysis; assay type: ADME, organism-based; conditions: in vivo, po
Protein kinase C (PKC) = test: Inhibition of PKC (unknown origin); assay type: protein assay, Homo sapiens
[26] = molecular target: Rho-associated protein kinase 1 (Homo sapiens, UniProt Q13464); test: Inhibition of human ROCK1 by mobile shift assay
Sequence of Rho-associated protein kinase 1 (Q13464 whole entry): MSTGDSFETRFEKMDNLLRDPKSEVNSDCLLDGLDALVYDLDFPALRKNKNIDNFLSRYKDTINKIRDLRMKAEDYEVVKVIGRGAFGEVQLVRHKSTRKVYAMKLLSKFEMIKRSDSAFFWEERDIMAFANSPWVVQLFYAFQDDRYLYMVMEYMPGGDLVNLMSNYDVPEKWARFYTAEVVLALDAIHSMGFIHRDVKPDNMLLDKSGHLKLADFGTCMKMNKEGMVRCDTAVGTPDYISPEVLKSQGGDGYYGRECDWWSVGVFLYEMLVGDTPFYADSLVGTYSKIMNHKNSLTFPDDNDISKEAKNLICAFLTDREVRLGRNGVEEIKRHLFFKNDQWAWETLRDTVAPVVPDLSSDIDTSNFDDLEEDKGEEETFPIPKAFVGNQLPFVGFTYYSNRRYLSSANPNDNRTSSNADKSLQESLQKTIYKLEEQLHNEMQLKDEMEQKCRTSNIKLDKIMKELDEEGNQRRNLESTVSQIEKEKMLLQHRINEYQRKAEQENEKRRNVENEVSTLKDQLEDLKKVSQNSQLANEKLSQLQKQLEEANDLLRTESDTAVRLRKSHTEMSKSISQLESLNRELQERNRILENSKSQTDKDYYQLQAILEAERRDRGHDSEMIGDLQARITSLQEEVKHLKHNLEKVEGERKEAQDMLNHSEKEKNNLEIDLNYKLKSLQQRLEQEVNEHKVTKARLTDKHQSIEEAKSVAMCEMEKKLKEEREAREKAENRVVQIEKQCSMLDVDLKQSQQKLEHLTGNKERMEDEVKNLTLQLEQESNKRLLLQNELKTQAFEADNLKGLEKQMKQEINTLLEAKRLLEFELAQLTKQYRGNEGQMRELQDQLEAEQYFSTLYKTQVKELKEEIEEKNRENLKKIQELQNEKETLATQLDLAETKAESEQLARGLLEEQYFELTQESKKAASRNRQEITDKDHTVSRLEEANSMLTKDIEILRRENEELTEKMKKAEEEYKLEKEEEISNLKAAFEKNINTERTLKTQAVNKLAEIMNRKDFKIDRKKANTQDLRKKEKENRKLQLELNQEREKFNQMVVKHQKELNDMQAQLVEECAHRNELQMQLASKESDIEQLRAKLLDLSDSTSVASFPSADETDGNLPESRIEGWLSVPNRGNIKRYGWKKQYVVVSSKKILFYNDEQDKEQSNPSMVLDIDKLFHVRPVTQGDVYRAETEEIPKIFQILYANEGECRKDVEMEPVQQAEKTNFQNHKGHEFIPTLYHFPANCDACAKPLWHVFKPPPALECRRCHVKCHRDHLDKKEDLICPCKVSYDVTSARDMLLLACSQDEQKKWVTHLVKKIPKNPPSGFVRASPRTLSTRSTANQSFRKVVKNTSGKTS

[27] = molecular target: Potassium voltage-gated channel subfamily A member 5 (Homo sapiens, UniProt P22460); test: Inhibition of Kv1.5 (unknown origin) at 3 uM relative to control
[28] = AUC (0 to t) in ICR mouse at 40 mg/kg, ig measured up to 48 hrs by LC-MS/MS analysis; assay type: ADME, organism-based; design: time < 48 hr, dose 40 mg/kg, route […]; conditions: in vivo, po
[29] = Oral bioavailability in ICR mouse at 40 mg/kg measured up to 48 hrs by LC-MS/MS analysis; assay type: ADME, organism-based; conditions: in vivo
[30] = AUC (0 to t) in Sprague-Dawley rat at 40 mg/kg, ig measured up to 24 hrs by LC-MS/MS analysis; assay type: ADME, organism-based; design: time < 24 hr, dose 40 mg/kg, route […]; conditions: in vivo, po
[31] = molecular target: Potassium/sodium hyperpolarization-activated cyclic nucleotide-gated channel 3 (Homo sapiens, UniProt Q9P1Z3); test: Inhibition of HCN3 (unknown origin) at 3 uM relative to control
Sequence of Potassium/sodium hyperpolarization-activated cyclic nucleotide-gated channel 3 (Q9P1Z3 whole entry): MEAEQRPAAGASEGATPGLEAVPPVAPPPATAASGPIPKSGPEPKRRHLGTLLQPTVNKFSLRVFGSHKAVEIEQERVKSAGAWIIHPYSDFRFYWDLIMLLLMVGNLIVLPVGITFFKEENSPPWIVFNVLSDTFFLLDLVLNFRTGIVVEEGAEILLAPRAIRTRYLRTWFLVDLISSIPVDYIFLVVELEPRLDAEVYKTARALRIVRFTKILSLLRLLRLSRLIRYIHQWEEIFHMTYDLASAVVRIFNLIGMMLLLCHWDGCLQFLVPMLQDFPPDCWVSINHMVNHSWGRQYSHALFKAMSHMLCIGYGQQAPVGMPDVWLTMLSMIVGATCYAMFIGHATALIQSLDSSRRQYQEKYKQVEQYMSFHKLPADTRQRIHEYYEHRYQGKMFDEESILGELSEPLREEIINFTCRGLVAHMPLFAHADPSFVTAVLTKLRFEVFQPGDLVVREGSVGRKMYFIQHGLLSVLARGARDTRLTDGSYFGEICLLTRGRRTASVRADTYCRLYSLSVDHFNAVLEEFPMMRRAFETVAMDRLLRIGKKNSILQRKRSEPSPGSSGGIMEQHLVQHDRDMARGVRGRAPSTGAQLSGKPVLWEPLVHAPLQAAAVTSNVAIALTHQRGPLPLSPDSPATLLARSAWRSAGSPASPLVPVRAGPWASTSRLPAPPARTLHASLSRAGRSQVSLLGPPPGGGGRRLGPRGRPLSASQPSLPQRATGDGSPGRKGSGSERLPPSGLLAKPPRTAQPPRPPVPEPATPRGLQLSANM

hERG (KCNH2) = hERG (KCNH2) (Homo sapiens, UniProt Q12809); test: Inhibition of ERG in human HEK293 cells at 3 uM at -80 mV holding potential by whole-cell patch clamp assay relative to control; assay type: cell-based; conditions: HEK293 cells expressing ERG
Sequence of hERG (KCNH2) (Q12809 whole entry): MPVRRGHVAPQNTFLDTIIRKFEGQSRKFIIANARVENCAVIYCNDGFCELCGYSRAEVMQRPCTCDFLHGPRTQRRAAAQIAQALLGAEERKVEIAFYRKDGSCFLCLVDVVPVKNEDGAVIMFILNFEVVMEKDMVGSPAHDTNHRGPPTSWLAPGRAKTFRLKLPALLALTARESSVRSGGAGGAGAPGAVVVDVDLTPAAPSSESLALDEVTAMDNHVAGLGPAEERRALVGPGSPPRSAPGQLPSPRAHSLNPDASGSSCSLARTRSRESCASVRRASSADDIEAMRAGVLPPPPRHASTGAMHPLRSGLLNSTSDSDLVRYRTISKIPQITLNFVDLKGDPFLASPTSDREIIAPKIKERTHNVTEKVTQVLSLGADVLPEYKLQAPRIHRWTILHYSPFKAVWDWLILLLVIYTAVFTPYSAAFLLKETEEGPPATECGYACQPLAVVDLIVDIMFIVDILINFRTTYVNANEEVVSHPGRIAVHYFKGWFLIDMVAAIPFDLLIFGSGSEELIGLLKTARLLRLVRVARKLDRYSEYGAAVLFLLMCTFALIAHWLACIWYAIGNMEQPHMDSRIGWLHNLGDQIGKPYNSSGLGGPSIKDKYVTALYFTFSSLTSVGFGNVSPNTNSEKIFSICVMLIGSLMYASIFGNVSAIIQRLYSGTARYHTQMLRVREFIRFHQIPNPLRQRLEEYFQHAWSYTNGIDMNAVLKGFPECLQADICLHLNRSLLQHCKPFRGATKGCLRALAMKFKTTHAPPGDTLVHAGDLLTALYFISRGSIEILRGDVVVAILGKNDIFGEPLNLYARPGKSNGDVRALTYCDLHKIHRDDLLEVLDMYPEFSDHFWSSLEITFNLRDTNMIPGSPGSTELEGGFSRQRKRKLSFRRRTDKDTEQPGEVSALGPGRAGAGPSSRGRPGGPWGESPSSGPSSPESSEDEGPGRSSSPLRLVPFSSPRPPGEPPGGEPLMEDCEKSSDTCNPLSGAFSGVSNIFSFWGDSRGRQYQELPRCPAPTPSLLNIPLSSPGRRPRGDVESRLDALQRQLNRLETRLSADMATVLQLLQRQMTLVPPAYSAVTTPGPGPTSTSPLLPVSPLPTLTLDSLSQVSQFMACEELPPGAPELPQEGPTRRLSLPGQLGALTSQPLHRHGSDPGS

Sequence of Potassium voltage-gated channel subfamily A member 4 (P22459 whole entry): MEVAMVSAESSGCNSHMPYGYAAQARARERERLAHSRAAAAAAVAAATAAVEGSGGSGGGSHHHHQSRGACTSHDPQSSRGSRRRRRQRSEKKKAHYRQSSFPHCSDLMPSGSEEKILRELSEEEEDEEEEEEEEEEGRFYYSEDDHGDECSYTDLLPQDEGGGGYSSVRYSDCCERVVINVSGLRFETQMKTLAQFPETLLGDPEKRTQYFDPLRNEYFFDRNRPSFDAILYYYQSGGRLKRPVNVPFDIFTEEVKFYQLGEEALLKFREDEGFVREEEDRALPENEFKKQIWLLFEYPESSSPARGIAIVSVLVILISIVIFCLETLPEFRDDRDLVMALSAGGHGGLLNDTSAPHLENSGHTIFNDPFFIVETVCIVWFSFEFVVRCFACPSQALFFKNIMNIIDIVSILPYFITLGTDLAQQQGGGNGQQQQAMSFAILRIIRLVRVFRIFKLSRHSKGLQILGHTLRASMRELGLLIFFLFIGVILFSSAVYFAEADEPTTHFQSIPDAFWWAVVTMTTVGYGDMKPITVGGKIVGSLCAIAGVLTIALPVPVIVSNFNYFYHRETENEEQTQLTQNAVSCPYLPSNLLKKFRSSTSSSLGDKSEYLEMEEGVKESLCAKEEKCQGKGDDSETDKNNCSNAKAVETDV

**Q.** Which results are given for `CNC(=O)C[C@@H]1C[C@@H](c2ccc(F)c(F)c2)[C@H](NC(=O)c2cc(-c3c(Cl)cnn3C)c(Cl)o2)CN1`?
**A.** inhibition (INH) [1]: Not Active; remaining at 1.5 h, 100 ug/ml [2]: > 99%; Tmax [3]: 1 h; IC50 (HCT-116): 1100 nM; Cmax [4]: 3620 ng/mL; Activity (SK-OV-3): 79.9%; inhibition (INH) [5]: Not Active; IC50 [6]: 145 nM; inhibition (INH) [7]: Not Active; IC50 [8]: 0.3 nM; inhibition (INH) [9]: Not Active; inhibition (INH) [10]: Not Active; Activity [11]: Toxic; inhibition (INH) [12]: Not Active; MTD at 168 h [13]: ≥ 80 mg/kg; MRT inf [14]: 5.3 h; Activity [15]: Non-Toxic; MRT last at 48 h [16]: 5.2 h; Activity [17]: Non-Toxic; Drug uptake [18]: 560 ng/mL; IC50 (OVCAR-8): 800 nM; Activity [19]: Non-Toxic; IC50 [20]: 1.37 nM; inhibition (INH) [21]: Not Active; remaining at 1 h, 100 ug/ml [22]: > 99%; CL/F [23]: 237 mL/min/kg; IC50 [24]: 44 nM; Vd [25]: 9 L/kg; IC50 (Protein kinase C (PKC)): 94 nM; IC50 [26]: 64 nM; inhibition (INH) [27]: Not Active; AUC(0-t) at 48 h [28]: 21100 ng·h/mL; bioavailability [29]: 48.4%; AUC(0-t) at 24 h [30]: 2440 ng·h/mL; inhibition (INH) [31]: Not Active; inhibition at 3 µM (hERG (KCNH2)): 4%
